Measurements taken from patent US9023789B2, “Amylin analogs and pharmaceutical compositions thereof” (Novo Nordisk A/S, priority 2012, dated 2015).
Where two headings read alike, the source gives them in different places. Numbered stars: 1 amine (or outer) side, 2 acyl side, 3 side chain; on linkers, the order of the positions; unused ones are H or OH. Bridge positions count the residues as written; N and C are the ends. Peptide text beside a SMILES is read from it. * marks the point of attachment. C20 diacid = O=C(O)CCCCCCCCCCCCCCCCCCC(=O)*; γGlu = O=C(O)[C@H](CCC(=O)[*:2])N[*:1]

What was measured:
[1] = biological target: T1, human amylin 3(a) receptor (human calcitonin receptor + RAMP-3) in BHK570 cells (Homo sapiens, UniProt O60896+P30988); test: ASSAY (II)a functional assay, human amylin receptor (CRE luciferase); assay type: cell-based
T1 construct: expressed in transfected cells
Outline: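 Functional agonism was measured by CRE-luciferase reporter luminescence in BHK cells bearing calcitonin receptor, or calcitonin receptor plus RAMP-3 as the amylin 3(a) receptor. Stimulation lasted 3 hours at 37° C.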

[2] = ASSAY (IV) determination of solubility; assay type: physicochemical
Outline: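 Solubility measured by UPLC of supernatant after centrifugation, following 18 h at room temperature. Peptide ([…] in water) was diluted 1:1 into 100 mM glycylglycine (pH 3.0, 4.0, 5.0) or bistrispropane (pH 6.0-8.0).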

[3] = biological target: T2, human amylin receptor (membranes from Amylin 3(a)/CRE-luc cells) (Homo sapiens, UniProt O60896+P30988); test: ASSAY (V) binding to the human amylin receptor (SPA, 125I-rat amylin);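 further: competition binding of cell membranes (35 ng/µL) mixed with SPA beads in 384-well plates at 40 µL total volume, read by scintillation counting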
T2 construct: expressed in transfected cells
T2 sequence (P30988 25-474): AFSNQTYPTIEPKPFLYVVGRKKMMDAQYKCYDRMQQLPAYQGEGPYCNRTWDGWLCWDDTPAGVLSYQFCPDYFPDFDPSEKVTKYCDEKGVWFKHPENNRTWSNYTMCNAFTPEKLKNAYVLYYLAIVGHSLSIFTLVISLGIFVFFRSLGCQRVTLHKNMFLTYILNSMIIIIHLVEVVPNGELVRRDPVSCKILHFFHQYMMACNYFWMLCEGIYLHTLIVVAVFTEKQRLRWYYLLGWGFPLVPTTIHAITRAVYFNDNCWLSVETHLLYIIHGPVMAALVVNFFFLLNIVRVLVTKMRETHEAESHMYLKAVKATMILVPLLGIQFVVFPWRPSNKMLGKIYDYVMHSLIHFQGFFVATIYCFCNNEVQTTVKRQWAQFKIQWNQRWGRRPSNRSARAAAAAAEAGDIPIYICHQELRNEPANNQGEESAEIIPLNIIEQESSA
T2 sequence (O60896 24-148 partner): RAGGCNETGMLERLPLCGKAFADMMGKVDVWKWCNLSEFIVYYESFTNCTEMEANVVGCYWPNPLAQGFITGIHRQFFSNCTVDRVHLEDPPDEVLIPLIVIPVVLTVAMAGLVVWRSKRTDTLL

[4] = biological target: T3, rat amylin receptor (rat calcitonin receptor + rat RAMP 3) (Rattus norvegicus, UniProt P32214+Q9JJ73); test: ASSAY (VI) binding to the rat amylin receptor; settings: for IC50: binding to rat amylin receptor, read-out: rAmylin-R bind IC50
T3 construct: expressed in transfected cells; host or cells: BHK tk'ts 13 (transient, FuGENE 6), membranes
T3 sequence (P32214 25-479 isoform P32214-2 limits assumed): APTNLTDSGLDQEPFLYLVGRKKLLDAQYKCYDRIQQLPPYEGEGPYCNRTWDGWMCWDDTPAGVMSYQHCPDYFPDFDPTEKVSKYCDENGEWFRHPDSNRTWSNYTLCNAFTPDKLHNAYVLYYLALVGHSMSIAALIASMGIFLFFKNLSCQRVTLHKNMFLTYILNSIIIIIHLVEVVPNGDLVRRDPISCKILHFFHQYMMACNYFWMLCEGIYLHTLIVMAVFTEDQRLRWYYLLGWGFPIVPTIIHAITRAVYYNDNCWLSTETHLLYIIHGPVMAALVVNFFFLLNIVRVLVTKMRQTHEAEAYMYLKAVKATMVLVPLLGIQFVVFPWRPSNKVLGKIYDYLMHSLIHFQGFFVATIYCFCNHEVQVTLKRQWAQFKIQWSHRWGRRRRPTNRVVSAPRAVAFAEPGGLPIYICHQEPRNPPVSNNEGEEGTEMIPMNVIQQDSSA
T3 sequence (Q9JJ73 23-147 partner): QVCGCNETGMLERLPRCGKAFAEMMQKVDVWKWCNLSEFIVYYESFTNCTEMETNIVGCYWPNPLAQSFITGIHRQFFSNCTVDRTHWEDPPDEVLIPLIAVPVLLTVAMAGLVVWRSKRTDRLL
Outline: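 The cell-membrane assay assessed binding at the rat amylin receptor. BHK tk′ts 13 cells were transfected transiently with rat calcitonin receptor, with FuGENE® 6 (Roche) as the transfection reagent, used per the manufacturer's recommendations. Approximately 48 hours after transfection the cells were harvested, and membranes were prepared for measuring binding.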

rat calcitonin receptor = biological target: T4, rat calcitonin receptor (Rattus norvegicus, UniProt P32214); test: ASSAY (VIII) binding to the rat calcitonin receptor; settings: Table 7, read-out: rCTR bind IC50
T4 construct: expressed in transfected cells; host or cells: BHK tk'ts 13 (transient, FuGENE 6), membranes
T4 sequence (P32214 25-479 isoform P32214-2 limits assumed): T3 sequence (P32214 25-479 isoform P32214-2 limits assumed)
Outline: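 BHK tk′ts 13 cells, transient rat calcitonin receptor transfection; DMEM + 10% FBS; harvest ~48 h post-transfection; membrane prep.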

[5] = hCTR funct. EC50 divided by hAmylin-R funct. EC50
[6] = hCTR funct. EC50 over hAmylin-R funct. EC50
[7] = human functional selectivity: hCTR funct. EC50 / hAmylin-R funct. EC50
[8] = bistrispropane buffer, pH 6.5, read-out: Solubility pH 6.5 Concentration
[9] = bistrispropane buffer, pH 7.5, read-out: Solubility pH 7.5 Concentration
[10] = bistrispropane buffer, pH 6.0, read-out: Solubility pH 6.0 Concentration
[11] = bistrispropane buffer, pH 7.0, read-out: Solubility pH 7.0 Concentration
[12] = bistrispropane buffer, pH 8.0, read-out: Solubility pH 8.0 Concentration
[13] = glycylglycine buffer, pH 3.0, read-out: Solubility pH 3.0 Concentration
[14] = glycylglycine buffer, pH 4.0, read-out: Solubility pH 4.0 Concentration
[15] = glycylglycine buffer, pH 5.0, read-out: Solubility pH 5.0 Concentration
[16] = Table 5, selectivity, hCTR bind IC50 / hAmylin-R bind IC50
[17] = Table 5a, selectivity, hCTR bind IC50 / hAmylin-R bind IC50
[18] = Table 5b, selectivity, hCTR bind IC50 / hAmylin-R bind IC50
[19] = Table 7, human binding selectivity, included for comparison
[20] = Table 7a (preferred compounds), human binding selectivity, included for comparison
[21] = ratio of human calcitonin receptor binding IC50 to human amylin receptor binding IC50
[22] = Table 7, rat binding selectivity, rCTR IC50 / rAmylin-R IC50
[23] = Table 7a (preferred compounds), rat binding selectivity, rCTR IC50 / rAmylin-R IC50
[24] = ratio of rCTR bind IC50 to rAmylin-R bind IC50

Row | Compound | Ratio hCT/hAmylin funct. [1, 5] | Ratio hCT/hAmylin funct. [1, 6] | Ratio hCT/hAmylin funct. [1, 7] | solubility at 18 h [2, 8] [µM] | solubility at 18 h [2, 9] [µM] | solubility at 18 h [2, 10] [µM] | solubility at 18 h [2, 11] [µM] | solubility at 18 h [2, 12] [µM] | solubility at 18 h [2, 13] [µM] | solubility at 18 h [2, 14] [µM] | solubility at 18 h [2, 15] [µM] | Ratio hCT/hAmylin binding [3, 16] | Ratio hCT/hAmylin binding [3, 17] | Ratio hCT/hAmylin binding [3, 19] | Ratio hCT/hAmylin binding [3, 20] | Ratio hCT/hAmylin binding [3, 21] | IC50 ([4]; Table 7) [nM] | Ratio rCT/rAmylin binding [4, 22] | Ratio rCT/rAmylin binding [4, 23] | Ratio rCT/rAmylin binding [4, 24] | further results
1 | CC[C@H](C)[C@H](NC(=O)[C@H](C)NC(=O)CNC(=O)[C@H](Cc1ccccc1)NC(=O)[C@H](CC(N)=O)NC(=O)[C@@H]1CCCN1C(=O)[C@H](CO)NC(=O)[C@H](CO)NC(=O)[C@H](Cc1c[nH]cn1)NC(=O)[C@H](CCCNC(=N)N)NC(=O)[C@H](CC(C)C)NC(=O)[C@H](Cc1ccccc1)NC(=O)[C@H](CCC(=O)O)NC(=O)[C@H](C)NC(=O)[C@H](CC(C)C)NC(=O)[C@H](CCCNC(=N)N)NC(=O)[C@H](CCC(N)=O)NC(=O)[C@@H](NC(=O)[C@H](C)NC(=O)[C@@H]1CSSC[C@H](NC(=O)[C@H](CCCCN)NC(=O)CC[C@H](NC(=O)CCCCCCCCCCCCCCCCCCC(=O)O)C(=O)O)C(=O)N[C@@H](CC(N)=O)C(=O)N[C@@H]([C@@H](C)O)C(=O)N[C@@H](C)C(=O)N[C@@H]([C@@H](C)O)C(=O)N1)[C@@H](C)O)C(=O)N1CCC[C@H]1C(=O)N[C@@H](CO)C(=O)N[C@@H](CO)C(=O)N[C@H](C(=O)N1CCC[C@H]1C(=O)N[C@H](C(=O)NCC(=O)N[C@@H](CO)C(=O)N[C@@H](CC(N)=O)C(=O)N[C@H](C(=O)N[C@@H](Cc1ccc(O)cc1)C(N)=O)[C@@H](C)O)C(C)C)[C@@H](C)O [Example 31] ({C20 diacid-γGlu}-KCNTATCATQRLAEFLRHSSPNFGAIPSSTPVGSNTY-NH2; disulfide 2-7 (inferred)) | 6.4 | 6.4 | 6.4 | ≥ 200 | ≥ 200 | ≥ 200 | ≥ 200 | ≥ 200 | ≥ 200 | ≥ 200 | ≥ 200 | 16.0 | 16.0 | 16.0 | 16.0 | 16.0 | 0.619 | 42.8 | 42.8 | 42.8 | Ratio hCT/hAmylin binding [3, 18]: 16.0; IC50 (rat calcitonin receptor): 26.5 nM
2 | CC[C@H](C)[C@H](NC(=O)[C@H](C)NC(=O)CNC(=O)[C@H](Cc1ccccc1)NC(=O)[C@H](CC(N)=O)NC(=O)[C@@H]1CCCN1C(=O)[C@H](CO)NC(=O)[C@H](CO)NC(=O)[C@H](Cc1c[nH]cn1)NC(=O)[C@H](CCCNC(=N)N)NC(=O)[C@H](CC(C)C)NC(=O)[C@H](Cc1ccccc1)NC(=O)[C@H](CC(N)=O)NC(=O)[C@H](C)NC(=O)[C@H](CC(C)C)NC(=O)[C@H](CCCNC(=N)N)NC(=O)[C@H](CCC(N)=O)NC(=O)[C@@H](NC(=O)[C@H](C)NC(=O)[C@@H]1CSSC[C@H](NC(=O)[C@@H](N)CCCCNC(=O)COCCOCCNC(=O)CC[C@H](NC(=O)CCCCCCCCCCCCCCCCCCC(=O)O)C(=O)O)C(=O)N[C@@H](CC(N)=O)C(=O)N[C@@H]([C@@H](C)O)C(=O)N[C@@H](C)C(=O)N[C@@H]([C@@H](C)O)C(=O)N1)[C@@H](C)O)C(=O)N1CCC[C@H]1C(=O)N[C@@H](CO)C(=O)N[C@@H](CO)C(=O)N[C@H](C(=O)N1CCC[C@H]1C(=O)N[C@H](C(=O)NCC(=O)N[C@@H](CO)C(=O)N[C@@H](CC(N)=O)C(=O)N[C@H](C(=O)N[C@@H](Cc1ccc(O)cc1)C(N)=O)[C@@H](C)O)C(C)C)[C@@H](C)O [Example 49] | 22.5 | 22.5 | 22.5 | ≥ 200 | ≥ 200 | ≥ 200 | ≥ 200 | ≥ 200 | ≥ 200 | ≥ 200 | ≥ 200 | 10.8 | 10.8 | 10.8 | 10.8 | 10.8 | 1.08 | 47.7 | 47.7 | 47.7 | IC50 (rat calcitonin receptor): 51.4 nM
3 | CC[C@H](C)[C@H](NC(=O)[C@H](C)NC(=O)CNC(=O)[C@H](Cc1ccccc1)NC(=O)[C@H](CC(N)=O)NC(=O)[C@@H]1CCCN1C(=O)[C@H](CO)NC(=O)[C@H](CO)NC(=O)[C@H](Cc1c[nH]cn1)NC(=O)[C@H](CCCNC(=N)N)NC(=O)[C@H](CC(C)C)NC(=O)[C@H](Cc1ccccc1)NC(=O)[C@H](CCC(=O)O)NC(=O)[C@H](C)NC(=O)[C@H](CC(C)C)NC(=O)[C@H](CCCNC(=N)N)NC(=O)[C@H](CCC(N)=O)NC(=O)[C@@H](NC(=O)[C@H](C)NC(=O)[C@@H]1CSSC[C@H](NC(=O)[C@H](CCCCN)NC(=O)CC[C@H](NC(=O)CCCCCCCCCCCCCCCCCCC(=O)O)C(=O)O)C(=O)N[C@@H](CC(N)=O)C(=O)N[C@@H]([C@@H](C)O)C(=O)N[C@@H](C)C(=O)N[C@@H]([C@@H](C)O)C(=O)N1)[C@@H](C)O)C(=O)N1CCC[C@H]1C(=O)N[C@@H](CO)C(=O)N[C@@H](CO)C(=O)N[C@H](C(=O)N[C@@H](CC(N)=O)C(=O)N[C@H](C(=O)NCC(=O)N[C@@H](CCCCN)C(=O)N[C@@H](CC(N)=O)C(=O)N[C@H](C(=O)N[C@@H](Cc1ccc(O)cc1)C(N)=O)[C@@H](C)O)C(C)C)[C@@H](C)O [Example 36] ({C20 diacid-γGlu}-KCNTATCATQRLAEFLRHSSPNFGAIPSSTNVGKNTY-NH2; disulfide 2-7 (inferred)) | 6.8 | 6.8 | 6.8 | ≥ 200 | ≥ 200 | ≥ 200 | ≥ 200 | ≥ 200 | ≥ 200 | ≥ 200 | ≥ 200 | 15.7 | 15.7 | 15.7 | 15.7 | 15.7 | 1.86 | 32.4 | 32.4 | 32.4 | Ratio hCT/hAmylin binding [3, 18]: 15.7; IC50 (rat calcitonin receptor): 60.1 nM
